Experimental data as given in patent US10508109B2 (priority 2015, dated 2019).
Counter-ions that a name gives are not always drawn. Like-named read-outs stand apart in the source and are kept apart here.

Tests used:
SUV39H2 = SUV39H2 (Homo sapiens (Human), UniProt Q9H5I1); test: biochemical; type: biochemical; details: 3H-SAM 100 nM, H3 Histone Peptide 350 nM, room temperature 3 hours
Procedure: Assay buffer (4 μL) was added into all the wells, including test compound and control wells (except for Sinefungin control wells), using the Multidrop Combi. The plate was centrifuged at 1000 rpm for 1 min. […] SUV39H2 (8 μL, final conc: optimized for each lot of the enzyme based on specific activity) was added by using the Multidrop Combi. The assay plate was centrifuged at 1000 rpm for 1 min. Assay buffer was used as background control, and incubated at room temperature for 3 hours. The reaction was stopped with 20 μL of 2.5 mg/mL Streptavidin SPA beads (final conc. 50 μg/well) in buffer using the Multidrop Combi and centrifuged for 1 min. The plate was loaded into the Trilux-Microbeta counter and a delayed read of 10 hours was made. The radioactive signal was measured at 1 min/well. Sinefungin and the internal standard compound were used as tool compounds to determine assay performance.
• The following calculations were made using the obtained CPM raw data: Software used: XLFit from IDBS.
For each test plate the following results were calculated: • Average, Standard Deviation, and % CV of Background Controls • Average, Standard Deviation, and % CV of Positive Controls • Z′ value of the plate • IC50 values of standard and test compounds (in nM) • R^2 value of fitted concentration response curve • Hill slope coefficient of fitted concentration response curve • Signal to Noise Ratio

A549 = test: Cell-based assay, anti-proliferative activity (Cell Counting Kit-8, 72 hours); details: Homo sapiens, read-out: A549 IC50
In short: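 Cells were seeded in 96-well plates and exposed to candidate inhibitors. Cellular growth was then determined with the colorimetric kit, and IC50 values were calculated from the growth data.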

[1] = A549 cells, 72 hours exposure, Cell Counting Kit-8

SUV39H2, sequence (Q9H5I1 whole entry): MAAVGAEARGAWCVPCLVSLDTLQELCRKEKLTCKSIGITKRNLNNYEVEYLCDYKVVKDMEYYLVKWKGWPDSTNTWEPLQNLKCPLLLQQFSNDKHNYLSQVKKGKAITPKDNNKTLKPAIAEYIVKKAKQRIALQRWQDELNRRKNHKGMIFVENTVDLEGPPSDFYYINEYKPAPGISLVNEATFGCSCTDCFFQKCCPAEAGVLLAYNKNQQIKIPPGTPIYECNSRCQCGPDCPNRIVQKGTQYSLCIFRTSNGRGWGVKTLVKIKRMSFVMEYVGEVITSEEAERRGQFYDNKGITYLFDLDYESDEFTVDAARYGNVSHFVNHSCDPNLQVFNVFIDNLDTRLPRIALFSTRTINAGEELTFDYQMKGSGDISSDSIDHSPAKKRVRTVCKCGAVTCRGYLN

Row | SMILES | IC50 (SUV39H2) [nM] | IC50 (A549; [1]) [nM] | IC50 (A549; A549, 72 h) [nM]
1 | COc1cc(OC)c(-c2cn3ccc(N[C@H]4CC[C@@H](N(C)Cc5ccccc5C)CC4)cc3n2)cc1Cl [Example 348, cis-N^1-(2-(5-chloro-2,4-dimethoxyphenyl)imidazo[1,2-a]pyridin-7-yl)-N^4-methyl-N^4-(2-methylbenzyl)cyclohexane-1,4-diamine bis(2,2,2-trifluoroacetate)] | 31.2 | 750 | 
2 | COc1cc(OC)c(-c2cn3ccc(N4CCN(c5cc(Cl)nc(N)n5)CC4)cc3n2)cc1Cl [Example 360, 4-chloro-6-(4-(2-(5-chloro-2,4-dimethoxyphenyl)imidazo[1,2-a]pyridin-7-yl)piperazin-1-yl)pyrimidin-2-amine] | 56 | 620 | 
3 | COc1cc(OC)c(-c2cn3ccc(N4CCN(S(C)(=O)=O)CC4C)cc3n2)cc1Cl (stereo not shown) [Example 311, 2-(5-chloro-2,4-dimethoxyphenyl)-7-(2-methyl-4-(methylsulfonyl)piperazin-1-yl)imidazo[1,2-a]pyridine] | 4.94 | 3800 | 
4 | COc1cc(OC)c(-c2cn3ccc(N4CCN(c5cnc(N6CCN(C)CC6)nc5)CC4)cc3n2)cc1Cl [Example 358, 2-(5-chloro-2,4-dimethoxyphenyl)-7-(4-(2-(4-methylpiperazin-1-yl)pyrimidin-5-yl)piperazin-1-yl)imidazo[1,2-a]pyridine] | 17.1 | 390 | 
5 | COc1cc(OC)c(-c2cn3ccc(N4CCN(c5ncnc(N6CCOCC6)n5)CC4)cc3n2)cc1Cl [Example 449, 4-(4-(4-(2-(5-chloro-2,4-dimethoxyphenyl)imidazo[1,2-a]pyridin-7-yl)piperazin-1-yl)-1,3,5-triazin-2-yl)morpholine] | 17.5 |  | 870
6 | COc1cc(OC)c(-c2cn3ccc(N4CCN(c5ncc(N6CCOCC6)cn5)CC4)cc3n2)cc1Cl [Example 427, 4-(2-(4-(2-(5-chloro-2,4-dimethoxyphenyl)imidazo[1,2-a]pyridin-7-yl)piperazin-1-yl)pyrimidin-5-yl)morpholine] | 25.1 | 820 | 
7 | COc1cc(OC)c(-c2cn3ccc(N4CCN(c5ccnc(N6CCNCC6)n5)CC4)cc3n2)cc1Cl [Example 341, 2-(5-chloro-2,4-dimethoxyphenyl)-7-(4-(2-(piperazin-1-yl)pyrimidin-4-yl)piperazin-1-yl)imidazo[1,2-a]pyridine] | 23.4 |  | 740
8 | COc1cc(OC)c(-c2cn3ccc(N[C@H]4CC[C@H](NCc5ccc(N(C)C)cc5)CC4)cc3n2)cc1Cl [Example 419, (1r,4r)-N^1-(2-(5-chloro-2,4-dimethoxyphenyl)imidazo[1,2-a]pyridin-7-yl)-N^4-(4-(dimethylamino)benzyl)cyclohexane-1,4-diamine] | 82 | 490 | 
9 | COc1cc(OC)c(-c2cn3ccc(N[C@H]4CC[C@H](NCc5ccccc5F)CC4)cc3n2)cc1Cl [Example 414, (1r,4r)-N^1-(2-(5-chloro-2,4-dimethoxyphenyl)imidazo[1,2-a]pyridin-7-yl)-N^4-(2-fluorobenzyl)cyclohexane-1,4-diamine] | 84.8 | 820 | 
10 | COc1cc(OC)c(-c2cn3ccc(N[C@H]4CC[C@H](CN5CCN(c6ncccn6)CC5)CC4)cc3n2)cc1Cl [Example 316, 2-(5-chloro-2,4-dimethoxyphenyl)-N-((trans)-4-((4-(pyrimidin-2-yl)piperazin-1-yl)methyl)cyclohexyl)imidazo[1,2-a]pyridin-7-amine] | 77 | 700 | 
11 | COc1cc(OC)c(-c2cn3ccc(N[C@H]4C[C@H]5CC[C@@H](C4)N5Cc4ccccc4)cc3n2)cc1Cl [Example 433, N-((1R,3r,5S)-8-benzyl-8-azabicyclo[3.2.1]octan-3-yl)-2-(5-chloro-2,4-dimethoxyphenyl)imidazo[1,2-a]pyridin-7-amine] | 57.6 | 820 | 
12 | COc1cc(OC)c(-c2cn3ccc(N4CCC(C(=O)NC5CCCCC5)CC4)cc3n2)cc1Cl [Example 453, 1-(2-(5-chloro-2,4-dimethoxyphenyl)imidazo[1,2-a]pyridin-7-yl)-N-cyclohexylpiperidine-4-carboxamide] | 10.5 | 540 | 
13 | COc1cc(OC)c(-c2cn3ccc(N4CCN(c5nc(N)nc(Cl)n5)CC4)cc3n2)cc1Cl [Example 361, 4-chloro-6-(4-(2-(5-chloro-2,4-dimethoxyphenyl)imidazo[1,2-a]pyridin-7-yl)piperazin-1-yl)-1,3,5-triazin-2-amine] | 43.3 | 870 | 
14 | COc1cc(OC)c(-c2cn3ccc(N4CC[C@H](NC(C)c5ccncc5)C4)cc3n2)cc1Cl (stereo partly drawn) [Example 407, (3S)-1-(2-(5-chloro-2,4-dimethoxyphenyl)imidazo[1,2-a]pyridin-7-yl)-N-(1-(pyridin-4-yl)ethyl)pyrrolidin-3-amine dihydrochloride] | 7.7 |  | 950
15 | COc1cc(OC)c(-c2cn3ccc(N4CCC[C@H](NCC5CCCCC5)C4)cc3n2)cc1Cl [Example 455, (S)-1-(2-(5-chloro-2,4-dimethoxyphenyl)imidazo[1,2-a]pyridin-7-yl)-N-(cyclohexylmethyl)piperidin-3-amine] | 12.3 | 920 | 
16 | COc1cc(OC)c(-c2cn3ccc(N4CCN(S(C)(=O)=O)C(C)C4)cc3n2)cc1Cl (stereo not shown) [Example 312, 2-(5-chloro-2,4-dimethoxyphenyl)-7-(3-methyl-4-(methylsulfonyl)piperazin-1-yl)imidazo[1,2-a]pyridine] | 3.81 | 2500 | 
17 | COc1cc(OC)c(-c2cn3ccc(N4C[C@H](NCc5ccncc5)[C@@H](O)C4)cc3n2)cc1Cl (relative stereo) [Example 439, trans-1-(2-(5-chloro-2,4-dimethoxyphenyl)imidazo[1,2-a]pyridin-7-yl)-4-((pyridin-4-ylmethyl)amino)pyrrolidin-3-ol] | 6.76 | 10000 | 
18 | COc1cc(OC)c(-c2cn3ccc(N4CCC[C@H](NCC5CCN(C(=O)OC(C)(C)C)CC5)C4)cc3n2)cc1Cl [Example 454, (S)-tert-butyl 4-(((1-(2-(5-chloro-2,4-dimethoxyphenyl)imidazo[1,2-a]pyridin-7-yl)piperidin-3-yl)amino)methyl)piperidine-1-carboxylate] | 27 | 760 | 
19 | COc1cc(OC)c(-c2cn3ccc(N4CCN(c5nccc(N6CCCC(O)C6)n5)CC4)cc3n2)cc1Cl (stereo not shown) [Example 376, 1-(2-(4-(2-(5-chloro-2,4-dimethoxyphenyl)imidazo[1,2-a]pyridin-7-yl)piperazin-1-yl)pyrimidin-4-yl)piperidin-3-ol] | 66.5 | 980 | 
20 | COc1cc(OC)c(-c2cn3ccc(N4CCN(Cc5ncccn5)CC4)cc3n2)cc1Cl [Example 352, 2-(5-chloro-2,4-dimethoxyphenyl)-7-(4-(pyrimidin-2-ylmethyl)piperazin-1-yl)imidazo[1,2-a]pyridine] | 9.25 | 10000 | 
21 | COc1cc(OC)c(-c2cn3ccc(N4CC[C@H](NC(=O)c5ccccn5)C4)cc3n2)cc1Cl [Example 404, (S)—N-(1-(2-(5-chloro-2,4-dimethoxyphenyl)imidazo[1,2-a]pyridin-7-yl)pyrrolidin-3-yl)picolinamide] | 4.03 | 1500 | 
22 | COc1ccc(CN[C@H]2CC[C@@H](Nc3ccn4cc(-c5cc(Cl)c(OC)cc5OC)nc4c3)CC2)cc1 [Example 380, cis-N^1-(2-(5-chloro-2,4-dimethoxyphenyl)imidazo[1,2-a]pyridin-7-yl)-N^4-(4-methoxybenzyl)cyclohexane-1,4-diamine bis(2,2,2-trifluoroacetate)] | 33.3 | 600 | 
23 | COc1cc(OC)c(-c2cn3cc(Br)c(N4CC[C@H](NCc5ccncc5)C4)cc3n2)cc1Cl [Example 438, (S)-1-(6-bromo-2-(5-chloro-2,4-dimethoxyphenyl)imidazo[1,2-a]pyridin-7-yl)-N-(pyridin-4-ylmethyl)pyrrolidin-3-amine] | 23.1 | 2400 | 
24 | COc1cc(OC)c(-c2cn3ccc(N4CCN(C(=O)c5ccncc5)CC4)cc3n2)cc1Cl [Example 319, (4-(2-(5-chloro-2,4-dimethoxyphenyl)imidazo[1,2-a]pyridin-7-yl)piperazin-1-yl)(pyridin-4-yl)methanone] | 16.4 | 4600 | 
25 | COc1cc(OC)c(-c2cn3cnc(N4CC[C@H](NC(=O)OC(C)(C)C)C4)cc3n2)cc1Cl [Example 387, (S)-tert-butyl (1-(2-(5-chloro-2,4-dimethoxyphenyl)imidazo[1,2-c]pyrimidin-7-yl)pyrrolidin-3-yl)carbamate] | 33.2 | 1600 | 
26 | COc1cc(OC)c(-c2cn3ccc(N4CCCN(Cc5ccncc5)CC4)cc3n2)cc1Cl [Example 388, 2-(5-chloro-2,4-dimethoxyphenyl)-7-(4-(pyridin-4-ylmethyl)-1,4-diazepan-1-yl)imidazo[1,2-a]pyridine dihydrochloride] | 5.05 |  | 560
